These are literature values, as cited in PMC5673907 (Clinical and Translational Science, 2017).

In the series the test system is HDL inflammatory index. Conditions: simvastatin 40 mg daily.

Regarding `CCC(C)(C)C(=O)O[C@H]1C[C@@H](C)C=C2C=C[C@H](C)[C@H](CC[C@@H]3C[C@@H](O)CC(=O)O3)[C@H]21` [simvastatin], the “Mean HII after statin” value is listed as “above 1.0 UR”. Where the note is “6 weeks, statin-naive CHD/equivalent risk”, the “Drop in HII” value is 28%.
